Laboratory results as given in patent publication US9856273B2, “ETP derivatives” (priority 2012, dated 2018).
“Also recorded” adds a separate entry of the source.

Experiments:
[1] = test system: Panc1 pancreatic cancer cells; experiment: Senescence assay (senescence-associated beta-galactosidase activity); assay type: cell-based; settings: 5 days, compared to DMSO
Experimental: Senescence Assay: Panc1 cells were seeded at a density of 3×10^4 cells per well in a 24-well plate. The cells were then treated with 100 nM ETP69 or 0.3% DMSO (vehicle control). Panc-1 and SU.86.86 cells expressing SUV39H1 shRNA or a non-targeting (NT) control shRNA were also seeded in 24-well plates at a density of 3×10^4 cells/well and 5×10^4 cells/well, respectively. After 5 days, cells were washed with PBS, fixed with 3% formaldehyde/PBS, and stained over night at 37° C. with a freshly prepared staining solution (1 mg/ml 5-bromo-4-chloro-3-indolyl b-D-galactoside in 40 mM citric acid/sodium phosphate, pH 6.0, 5 mM potassium ferrocyanide, 5 mM potassium ferricyanide, 150 mM NaCl, 2 mM MgCl2). The blue stain indicates senescence-associated β-galactosidase activity. Photographs were taken with a 100× or a 20× objective under brightfield illumination using an INFINITY2 digital CCD camera (Lumenera, Canada) mounted on a Nikon Eclipse TS100 inverted microscope.

H3K9 trimethylation = experiment: Western blot of histone H3 (trimethyl K9) in A2058 melanoma cells; assay type: cell-based, human
Experimental: (§1) Western blot analyses were performed with specific antibodies. Briefly, human A2058 melanoma, DU145 prostate, A549 non-small lung and SKOV3 ovarian cancer cells were treated with ETP69. Whole-cell lysates (40 […]g) or histone extracts (10 […]g) were resolved by SDS-PAGE. Primary specific antibodies to histone H3 and histone H3 (trimethyl K9) were incubated in PBS (pH 7.5) with 0.1% (v/v) Tween-20 and 5% (w/v) BSA with gentle agitation overnight at 4° C. Other specific antibodies were diluted in PBS (pH 7.5) with 5% (w/v) nonfat milk and 0.1% (v/v) Tween-20 over night at 4° C. Horseradish peroxidase-conjugated secondary antibodies were incubated in PBS (pH 7.5) with 5% (w/v) nonfat milk and 0.1% (v/v) Tween-20 for 1 h at room temperature. Positive immuno-reactive proteins were detected using the ECL system (Pierce, Rockford, Ill.).

[2] = test system: HepG2 hepatocellular carcinoma cells; experiment: MTS cell viability assay; assay type: cell-based; settings: Homo sapiens
[3] = test system: HCC38 triple negative breast cancer cells; experiment: Cell viability assay; assay type: cell-based
SUV39H1 = SUV39H1 (Homo sapiens, UniProt O43463); experiment: Histone methyltransferase (HMT) assay in vitro; assay type: biochemical
Sequence of SUV39H1 (O43463 whole entry): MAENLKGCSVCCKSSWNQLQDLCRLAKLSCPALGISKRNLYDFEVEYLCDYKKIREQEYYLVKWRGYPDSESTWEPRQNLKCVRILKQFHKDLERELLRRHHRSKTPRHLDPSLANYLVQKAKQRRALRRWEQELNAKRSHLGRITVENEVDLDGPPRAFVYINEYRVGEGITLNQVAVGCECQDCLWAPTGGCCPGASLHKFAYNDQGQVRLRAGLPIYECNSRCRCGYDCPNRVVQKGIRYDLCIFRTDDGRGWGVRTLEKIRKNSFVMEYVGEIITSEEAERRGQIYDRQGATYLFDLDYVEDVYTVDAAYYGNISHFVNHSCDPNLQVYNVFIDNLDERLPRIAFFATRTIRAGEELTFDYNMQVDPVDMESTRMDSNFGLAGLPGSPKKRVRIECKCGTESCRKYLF
Experimental: (§2) For histone methyltranferase (HMT), DNA methyltransferase (DNMT) and Histone acetyltransferase (HAT) assays in vitro, human recombinant HMT, DNMT and HAT proteins were mixed with substrates in the reaction buffer (50 mM Tris-HCl (pH 8.5), 5 mM MgCl2, 50 mM NaCl, 1 mM DTT, 1 mM PMSF, 1% DMSO), including histone H3, histone H4, nucleosomes, or core histone. Racemic ETP69, S enantiomer or DMSO as a vehicle control was preincubated in the mixture. Next, for HMTs and DNMT assays, […] of ^3H-SAM was added to the mixture for the reaction initiation and conversion of ^3H-SAM+histone L-lysine to SAH+histone N^6-[methyl-^3H]-L-lysine was monitored with miniatured radioligand-filter binding platform. For p300 HAT assays, the conversion of acetyl-^3H-acetyl coenzyme A to coenzyme A was monitored. The reactions were carried out at 30° C. IC50 values were determined using Excel and GraphPad Prism software.

G9a = G9a (Homo sapiens, UniProt Q96KQ7); experiment: Histone methyltransferase (HMT) assay in vitro; assay type: biochemical
Sequence of G9a (Q96KQ7 whole entry): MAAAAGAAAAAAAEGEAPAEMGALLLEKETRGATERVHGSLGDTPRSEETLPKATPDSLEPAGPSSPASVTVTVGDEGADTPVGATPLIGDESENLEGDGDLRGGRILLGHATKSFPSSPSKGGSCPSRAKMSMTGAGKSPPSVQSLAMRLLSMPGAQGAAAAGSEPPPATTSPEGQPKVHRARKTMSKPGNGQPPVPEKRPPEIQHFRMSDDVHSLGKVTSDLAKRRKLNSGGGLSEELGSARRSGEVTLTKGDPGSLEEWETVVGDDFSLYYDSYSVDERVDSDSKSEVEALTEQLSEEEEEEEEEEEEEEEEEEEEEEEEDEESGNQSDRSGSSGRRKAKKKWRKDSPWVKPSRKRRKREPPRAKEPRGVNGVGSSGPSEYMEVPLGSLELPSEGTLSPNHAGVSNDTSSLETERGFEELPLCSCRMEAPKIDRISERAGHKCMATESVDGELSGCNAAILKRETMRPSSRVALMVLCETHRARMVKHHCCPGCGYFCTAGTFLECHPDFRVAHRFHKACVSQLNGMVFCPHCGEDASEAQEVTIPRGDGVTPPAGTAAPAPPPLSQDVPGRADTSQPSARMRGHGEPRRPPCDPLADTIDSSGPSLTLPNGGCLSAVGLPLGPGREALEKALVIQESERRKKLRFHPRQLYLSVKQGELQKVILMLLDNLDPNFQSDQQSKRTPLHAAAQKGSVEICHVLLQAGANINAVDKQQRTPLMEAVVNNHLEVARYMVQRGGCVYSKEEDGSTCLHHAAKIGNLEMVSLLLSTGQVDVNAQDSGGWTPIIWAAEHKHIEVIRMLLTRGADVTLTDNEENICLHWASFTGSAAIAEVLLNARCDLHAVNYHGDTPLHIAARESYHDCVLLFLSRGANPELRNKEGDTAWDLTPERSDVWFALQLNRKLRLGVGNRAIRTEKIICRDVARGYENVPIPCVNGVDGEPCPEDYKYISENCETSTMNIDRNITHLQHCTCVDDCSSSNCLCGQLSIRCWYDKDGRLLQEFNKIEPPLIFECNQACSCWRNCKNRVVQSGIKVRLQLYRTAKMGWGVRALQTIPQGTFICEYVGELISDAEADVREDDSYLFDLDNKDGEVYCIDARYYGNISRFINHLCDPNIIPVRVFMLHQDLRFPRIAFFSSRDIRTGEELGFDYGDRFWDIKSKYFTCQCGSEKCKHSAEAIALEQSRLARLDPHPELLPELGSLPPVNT
Experimental: as §2

[4] = test system: Cyclin-dependent kinase inhibitor 1B p27(Kip1); experiment: Western blot, induction of p27(Kip1); assay type: cell-based, human; settings: A2058, DU145, A549 and SKOV3 cells
Experimental: as §1, with “Induction of p16, p53, p21waf1 and p27 (FIGS. 8 and 9): Western” for “Western”, “[…]g)” for “[…]g) or histone extracts (10 […]g)”, “p53, p21^WAF1, p27(Kip1), p16” for “histone H3”, “Actin” for “histone H3 (trimethyl K9) were incubated in PBS (pH 7.5) with 0.1% (v/v) Tween-20 and 5% (w/v) BSA with gentle agitation overnight at 4° C. Other specific antibodies”

[5] = test system: Su.86.86 pancreatic cancer cell line; experiment: MTS assay; assay type: cell-based
Experimental: (§3) MTS Assay: Panc1, BxPC3, or SU.86.86 cells were seeded in a 96-well plate at a density of 7500 cells/well prior to treatment with increasing amounts of ETP69 or DMSO vehicle control. Forty-eight hours post treatment cells were incubated with the MTS substrate (CellTiter 96 AQueous One Solution Cell Proliferation Assay, Promega, Madison, Wis.) according to the manufacturer's instructions. The absorbance was measured at 490 nm using a 96-well plate reader (Synergy 4, Biotek), and the data were normalized to the absorbance of DMSO-treated cells. IC50 values were determined using GraphPad Prism's non-linear regression function. See FIGS. 11, 21, 22A, 22B, 23, 24A, 24B, 24C, 25A and 25B.

[6] = test system: Panc1 pancreatic cancer cell line; experiment: MTS assay; assay type: cell-based; settings: Homo sapiens, PANC-1; Panc1, 48 h
Experimental: as §3

[7] = test system: BxPC3 pancreatic cancer cell line; experiment: MTS assay; assay type: cell-based
Experimental: as §3

p53 tumor suppressor = experiment: Western blot, induction of p53; assay type: cell-based, human; settings: A2058, DU145, A549 and SKOV3 cells (SKOV3 cells do not express p53 protein)
Experimental: as §1, with “Induction of p16, p53, p21waf1 and p27 (FIGS. 8 and 9): Western” for “Western”, “[…]g)” for “[…]g) or histone extracts (10 […]g)”, “p53, p21^WAF1, p27(Kip1), p16” for “histone H3”, “Actin” for “histone H3 (trimethyl K9) were incubated in PBS (pH 7.5) with 0.1% (v/v) Tween-20 and 5% (w/v) BSA with gentle agitation overnight at 4° C. Other specific antibodies”

CN1C(=O)[C@@]23C[C@](C)(C#N)[C@H](c4ccc5c(c4)OCO5)N2C(=O)[C@]1(C)SS3 (racemic) [ETP69, Rac-(3S,6S,7S,8aS)-6-(Benzo[d][1,3]dioxol-5-yl)-2,3,7-trimethyl-1,4-dioxohexahydro-6H-3,8a-epidithiopyrrolo[1,2-a]pyrazine-7-carbonitrile]
senescence-associated beta-galactosidase activity [1]: increased senescence-associated beta-galactosidase activity | inhibition of H3K9 trimethylation (H3K9 trimethylation): inhibition | IC50 [2]: 13.8 nM | viability inhibition [3]: viability inhibition | inhibition of HMT SUV39H1 (SUV39H1): selectively inhibits; also recorded: specific inhibition | inhibition of HMT G9a (G9a): selectively inhibits; also recorded: specific inhibition | induction of p27(Kip1) [4]: induces | IC50 ([5]; Homo sapiens, SU.86.86, 48 h): 86 nM | killing of cells ([5]; SU86.86, 100 nM to 1000 nM): significant killing | IC50 [6]: 824 nM | killing of cells ([7]; BxPC3, 100 nM to 1000 nM): significant killing | IC50 ([7]; Homo sapiens, BXPC-3, BxPC3, 48 h): 210 nM | induction of p53 (p53 tumor suppressor): induces
